Literature values in US20240050514A1, “USE OF COMPOUND, PHARMACEUTICAL COMPOSITION FOR THE TREATMENT OF IMMUNE OR METABOLIC DISORDERS, PHARMACEUTICAL COMPOSITION FOR THE TREATMENT OF ILLNESSES CAUSED BY OR ASSOCIATED WITH VIRUSES” (PROTEIMAX BIOTECNOLOGIA LTDA., priority 2021, published 2024).

Columns and labels:
ACE = ACE (Homo sapiens, UniProt P12821); conditions: read-out: inhibition constant Ki
[1] = in vivo

Sequence of ACE (P12821 30-1306, species assumed): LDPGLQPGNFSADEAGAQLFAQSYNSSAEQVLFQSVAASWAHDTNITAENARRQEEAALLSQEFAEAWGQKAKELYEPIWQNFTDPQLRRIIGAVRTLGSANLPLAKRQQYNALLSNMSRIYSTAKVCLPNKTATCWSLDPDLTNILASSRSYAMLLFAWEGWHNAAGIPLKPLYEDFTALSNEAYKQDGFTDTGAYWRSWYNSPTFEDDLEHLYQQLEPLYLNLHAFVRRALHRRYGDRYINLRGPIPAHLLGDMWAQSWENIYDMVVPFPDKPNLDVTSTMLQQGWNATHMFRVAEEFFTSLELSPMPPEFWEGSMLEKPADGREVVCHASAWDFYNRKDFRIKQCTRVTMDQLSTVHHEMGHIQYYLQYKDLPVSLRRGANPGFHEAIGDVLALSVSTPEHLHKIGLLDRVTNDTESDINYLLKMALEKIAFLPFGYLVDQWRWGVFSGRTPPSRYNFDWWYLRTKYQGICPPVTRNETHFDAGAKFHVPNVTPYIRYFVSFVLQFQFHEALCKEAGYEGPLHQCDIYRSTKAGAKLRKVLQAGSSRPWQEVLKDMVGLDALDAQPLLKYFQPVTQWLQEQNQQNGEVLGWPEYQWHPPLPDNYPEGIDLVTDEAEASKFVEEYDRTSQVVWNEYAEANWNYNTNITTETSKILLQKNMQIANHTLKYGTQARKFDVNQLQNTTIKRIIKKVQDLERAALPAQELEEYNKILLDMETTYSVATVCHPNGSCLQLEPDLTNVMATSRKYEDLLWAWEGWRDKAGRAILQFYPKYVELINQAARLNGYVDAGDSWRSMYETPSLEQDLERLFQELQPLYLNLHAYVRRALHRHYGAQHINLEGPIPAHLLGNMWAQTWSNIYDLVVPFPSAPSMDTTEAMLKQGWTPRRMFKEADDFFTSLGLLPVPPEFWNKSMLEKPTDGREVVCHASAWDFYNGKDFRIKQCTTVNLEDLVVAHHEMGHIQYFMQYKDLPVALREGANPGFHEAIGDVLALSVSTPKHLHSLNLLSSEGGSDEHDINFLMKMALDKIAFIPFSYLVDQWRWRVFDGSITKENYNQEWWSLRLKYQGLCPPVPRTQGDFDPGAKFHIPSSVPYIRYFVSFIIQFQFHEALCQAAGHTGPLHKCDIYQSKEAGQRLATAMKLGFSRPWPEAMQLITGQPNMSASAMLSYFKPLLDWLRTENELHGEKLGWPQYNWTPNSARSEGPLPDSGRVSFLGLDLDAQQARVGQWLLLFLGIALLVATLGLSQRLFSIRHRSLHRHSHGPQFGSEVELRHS

Q: With CC(C)C[C@H](NC(=O)[C@H](Cc1ccccc1)NC(=O)[C@H](CCCCN)NC(=O)[C@H](Cc1ccccc1)NC(=O)[C@H](CC(N)=O)NC(=O)[C@@H](NC(=O)[C@@H]1CCCN1)C(C)C)C(=O)N[C@@H](CO)C(=O)N[C@@H](Cc1cnc[nH]1)C(=O)O [hemopressin, PVNFKFLSH] as the compound, how does the Ki (ACE) read?
A: The Ki was 1870 µM.

Q: And the “basal levels of monoamine in the prefrontal cortex” value (rats)?
A: Its value is “reduction in the basal levels of monoamine in the prefrontal cortex”.

Q: And the behavior after administration (rats)?
A: The behavior after administration was “induced anxiogenic and depressive behavior”.

Q: And the “crossing of the blood-brain barrier” value [1]?
A: The value was “does not cross the blood-brain barrier”.
